In patent publication US20050119238A1, “Compositions and methods for preventing sporadic neoplasia in colon” (priority 2002, published 2005):

Columns and labels:
[1] = Serious medical events in the randomized placebo-controlled aspirin study; conditions: for Serious Bleeding, Gastrointestinal / Serious Bleeding, Genitourinary: bleeding leading to hospitalization or surgical intervention
Protocol: A multi-center, randomized, double-blind, placebo-controlled study was performed that examined the effects of aspirin alone as well as folate treatment combined with aspirin on the occurrence of large bowel adenomas. The study has a 3-by-2 factorial design, investigating aspirin (placebo, 81 mg/day, or 325 mg/day) and folic acid (placebo or 1 mg/day). Patients were recruited at nine centers in North America. Eligible subjects had at least one of the following: (1) one or more histologically confirmed large-bowel adenomas removed within 3 months prior to recruitment, (2) one or more histologically confirmed large-bowel adenomas removed within 16 months before recruitment and a lifetime history of 2 or more confirmed large-bowel adenomas, or (3) a histologically confirmed large-bowel adenoma at least 1 cm in diameter removed within 16 months before recruitment. […] Eligible subjects were between 21 and 80 years old, in good health, and with anticipated colonoscopic follow-up three years after the qualifying examination. Exclusion criteria included a history of a familial colorectal cancer syndrome, invasive large-bowel cancer, malabsorption syndromes, any condition potentially worsened by supplemental aspirin or folic acid, or any condition commonly treated with aspirin, non-steroidal anti-inflammatory drugs (NSAIDs), or folate (e.g., recurrent arthritis, atherosclerotic vascular disease, folic acid deficiency).
Study coordinators at each center maintained contact with the subjects on a regular basis; interval questionnaires regarding possible side effects and medical events were completed every four months by each subject.
Subjects were regularly counseled regarding avoidance of aspirin and other NSAIDs. Lists of products containing aspirin, ibuprofen, or naproxen were provided, and acetaminophen was distributed for treatment of minor febrile illnesses and pain. Every four months, subjects received questionnaires regarding adherence to study treatment; use of medications, over-the-counter drugs and nutritional supplements; and occurrence of symptoms, illnesses, and hospitalizations.
The statistical analysis compared the aspirin treatment groups irrespective of folic acid treatment. Subjects who underwent a follow-up endoscopy at least one year following randomization were included in the analyses. The predefined primary statistical analysis was a 2 degree-of-freedom chi-squared test for a contingency table comparing treatment groups regarding risk of one or more new adenomas. Crude risk ratios and 95 percent confidence intervals were used to compare treatment groups to placebo. Adjusted risk ratios were obtained from log-linear models with age, gender, clinical center, number of lifetime adenomas, and duration of follow-up as covariates. […] Possible modification of treatment effects by baseline characteristics was assessed using interaction terms in the log-linear model. Counts of other clinical endpoints were compared using Fisher's exact test. To compare the effect of aspirin on different types of polyps, a logistic regression model was used with generalized estimating equations (Liang and Zeger Biometrika 1986:13-22) to account for the clustering of multiple endpoints within patients. […] Two-sided P-values <0.05 were considered statistically significant.

[2] = tested on: patients with sporadic (non-hereditary) colorectal neoplasia (adenomas); test: Randomized, double-blind, placebo-controlled study of aspirin on occurrence of large bowel adenomas; type: in vivo, human
From the text: Patients were recruited at nine centers in North America.
By protocol, subjects were to have a complete surveillance colonoscopy 34-40 months after the qualifying examination. At each colonoscopy, the endoscopist recorded the estimated size and location of all polyps and mucosal lesions suspicious for neoplasia as per usual clinical practice. Each lesion was removed and examined histologically at the clinical center and by the study pathologist. Polyps were classified as neoplastic (adenomatous) or non-neoplastic (e.g., hyperplastic) by the study pathologist.
The primary study outcome was the proportion of subjects with one or more colorectal adenomas detected during the period from one year after randomization through the anticipated surveillance follow-up. If a surveillance colonoscopy was not performed during the protocol time window, the last examination at least one year after randomization was taken as the follow-up exam. Pre-specified secondary outcomes were the numbers of large-bowel adenomas and “advanced lesions”: tubulovillous adenomas (25 to 75 percent villous features), villous adenomas (>75 percent villous), large adenomas ([…]), severe dysplasia, or invasive cancer. Separate analyses were also conducted for lesions in the left colorectum (descending colon, sigmoid colon, and rectum) and right colorectum (the remainder of the bowel).

SMILES: CC(=O)Oc1ccccc1C(=O)O [aspirin, acetylsalicylic acid]
- Coronary Revascularization ([1]; 81 mg aspirin (N = 377)): 3 no of subjects
- Deaths ([1]; 81 mg aspirin (N = 377)): 3 no of subjects
- Died (percent) ([1]; 81 mg aspirin (N = 377)): 0.8%
- Hospitalization ([1]; 81 mg aspirin (N = 377)): 61 no of subjects
- Myocardial Infarction ([1]; 81 mg aspirin (N = 377)): 2 no of subjects
- Non-Colorectal Cancer ([1]; 81 mg aspirin (N = 377)): 14 no of subjects
- Stroke ([1]; 81 mg aspirin (N = 377)): 2 no of subjects
- Serious Bleeding, Gastrointestinal ([1]; 81 mg aspirin (N = 377)): 2 no of subjects
- Serious Bleeding, Genitourinary ([1]; 81 mg aspirin (N = 377)): 6 no of subjects
- Coronary Revascularization ([1]; 325 mg aspirin (N = 372)): 5 no of subjects
- Deaths ([1]; 325 mg aspirin (N = 372)): 4 no of subjects
- Died (percent) ([1]; 325 mg aspirin (N = 372)): 1.1%
- Hospitalization ([1]; 325 mg aspirin (N = 372)): 57 no of subjects
- Myocardial Infarction ([1]; 325 mg aspirin (N = 372)): 4 no of subjects
- Non-Colorectal Cancer ([1]; 325 mg aspirin (N = 372)): 9 no of subjects
- Stroke ([1]; 325 mg aspirin (N = 372)): 5 no of subjects
- Serious Bleeding, Gastrointestinal ([1]; 325 mg aspirin (N = 372)): 4 no of subjects
- Serious Bleeding, Genitourinary ([1]; 325 mg aspirin (N = 372)): 2 no of subjects
- Hospitalization, cancer and myocardial infarction, occurrence ([1]; aspirin groups versus placebo, differences compatible with chance): somewhat more frequently
- patients diagnosed with a stroke (all non-fatal) ([1]; both aspirin groups together, none on placebo): Seven
- Relative Crude Risk (95% CI) ([2]; Any adenoma, both aspirin groups combined versus placebo): 0.88 (0.77-1.02)
- incidence of adenomas ([2]; patients randomized to the aspirin groups): significantly lower
